According to publication PMC5748833, “Synthesis and Biological Evaluation of Novel Hybrid Molecules Containing Purine, Coumarin and Isoxazoline or Isoxazole Moieties” (The Open Medicinal Chemistry Journal, 2017):

Legend:
[1] = Reducing activity of the stable radical DPPH; details: 100 μM compound, after 20 min
Outline: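 Compounds (100 μM) mixed with equal volume of 100 μM DPPH in absolute ethanol at room temperature; absorbance at 517 nm read after 20 and 60 min against ethanol control. Activity given as RA% (reducing activity); NDGA standard.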

rat monoamine oxidase A = biological target: T1, rat monoamine oxidase A (Rattus norvegicus, UniProt P21396); test: Inhibition of MAO-A (spectrofluorimetric method); format: biochemical; details: 10 μM compound
T1 construct: from tissue
T1 sequence (P21396 1-526): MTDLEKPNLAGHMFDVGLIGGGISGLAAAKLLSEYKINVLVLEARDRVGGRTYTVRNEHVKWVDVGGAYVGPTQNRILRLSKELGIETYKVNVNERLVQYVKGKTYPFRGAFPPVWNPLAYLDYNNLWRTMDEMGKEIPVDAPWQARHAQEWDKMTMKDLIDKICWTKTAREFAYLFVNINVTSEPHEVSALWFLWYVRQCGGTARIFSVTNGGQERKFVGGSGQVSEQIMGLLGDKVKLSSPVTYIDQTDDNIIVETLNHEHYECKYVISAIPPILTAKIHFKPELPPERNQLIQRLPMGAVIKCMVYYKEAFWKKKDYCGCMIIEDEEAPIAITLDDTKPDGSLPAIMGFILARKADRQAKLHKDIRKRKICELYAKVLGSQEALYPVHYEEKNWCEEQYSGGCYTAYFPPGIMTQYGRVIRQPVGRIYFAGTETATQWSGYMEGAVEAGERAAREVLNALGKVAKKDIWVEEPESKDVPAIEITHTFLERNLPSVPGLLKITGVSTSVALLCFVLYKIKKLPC
Source text: (§1) 2.2.2.6 Inhibition Study on MAOs in vitro
(§2) Inhibition of rat monoamine oxidase A and B was studied by means of a spectrofluorimetric method as previously detailed.

rat monoamine oxidase B = biological target: T2, rat monoamine oxidase B (Rattus norvegicus, UniProt P19643); test: Inhibition of MAO-B (spectrofluorimetric method); format: biochemical; details: for MAO-B (%) @ 10μΜ: 10 μM compound
T2 construct: from tissue
T2 sequence (P19643 1-520): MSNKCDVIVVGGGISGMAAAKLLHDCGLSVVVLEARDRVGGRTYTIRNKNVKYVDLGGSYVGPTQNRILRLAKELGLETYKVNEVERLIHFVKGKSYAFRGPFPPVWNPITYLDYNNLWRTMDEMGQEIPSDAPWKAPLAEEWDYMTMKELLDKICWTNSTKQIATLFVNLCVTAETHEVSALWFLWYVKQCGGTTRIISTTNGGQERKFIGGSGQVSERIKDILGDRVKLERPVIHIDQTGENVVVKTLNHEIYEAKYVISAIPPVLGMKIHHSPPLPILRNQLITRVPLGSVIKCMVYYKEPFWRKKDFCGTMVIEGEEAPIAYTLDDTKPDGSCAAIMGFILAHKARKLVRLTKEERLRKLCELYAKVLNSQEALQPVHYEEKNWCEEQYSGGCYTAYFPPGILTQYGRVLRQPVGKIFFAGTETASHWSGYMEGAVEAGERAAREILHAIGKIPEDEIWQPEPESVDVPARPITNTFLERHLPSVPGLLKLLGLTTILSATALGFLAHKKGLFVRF
Source text: as §1, §2

SMILES	RA% @ 100μΜ (reducing activity, DPPH) [1]	MAO-A (%) @ 10μΜ (rat monoamine oxidase A)	MAO-B (%) @ 10μΜ (rat monoamine oxidase B)	IC50 (rat monoamine oxidase B; read-out: MAO-B IC50 μΜ) [µM]
O=c1cc(OCc2cc(Cn3cnc4c(N5CCOCC5)ncnc43)no2)c2ccccc2o1 [13i]	no	6%	9%	
O=c1cc(OCC2CC(Cn3cnc4c(N5CCCCC5)ncnc43)=NO2)c2ccccc2o1 (stereo not drawn) [4f]	3%	no	no	
Cc1cc(=O)oc2ccc(OCC3=NOC(Cn4cnc5c(Cl)ncnc54)C3)cc12 (stereo not drawn) [11b]	5%	15%		9.5
